Assay [1] concerns the target Gamma-aminobutyric acid receptor subunit alpha-6 (Homo sapiens, UniProt Q16445).
For assay [2], the target named is Gamma-aminobutyric acid receptor subunit alpha-4 (Homo sapiens, UniProt P48169).

From BindingDB's records for doi:10.1016/0922-4106(95)90072-1 (Cocensys, 1995) come the findings set out here.

pKi: −log10 of the molar value.

Sequence of Gamma-aminobutyric acid receptor subunit alpha-6 (Q16445 whole entry): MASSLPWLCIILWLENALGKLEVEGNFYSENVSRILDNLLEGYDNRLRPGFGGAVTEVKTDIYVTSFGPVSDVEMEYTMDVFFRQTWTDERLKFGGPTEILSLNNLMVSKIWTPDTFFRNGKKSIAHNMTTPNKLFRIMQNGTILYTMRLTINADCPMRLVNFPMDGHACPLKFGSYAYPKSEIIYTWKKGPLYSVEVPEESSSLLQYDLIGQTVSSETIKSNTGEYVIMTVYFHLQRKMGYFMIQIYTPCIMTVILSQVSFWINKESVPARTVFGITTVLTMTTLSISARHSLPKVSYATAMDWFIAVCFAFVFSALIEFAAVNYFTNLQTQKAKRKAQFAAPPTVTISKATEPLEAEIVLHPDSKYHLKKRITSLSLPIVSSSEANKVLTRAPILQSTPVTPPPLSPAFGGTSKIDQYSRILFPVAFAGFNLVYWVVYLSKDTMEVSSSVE
Sequence of Gamma-aminobutyric acid receptor subunit alpha-4 (P48169 whole entry): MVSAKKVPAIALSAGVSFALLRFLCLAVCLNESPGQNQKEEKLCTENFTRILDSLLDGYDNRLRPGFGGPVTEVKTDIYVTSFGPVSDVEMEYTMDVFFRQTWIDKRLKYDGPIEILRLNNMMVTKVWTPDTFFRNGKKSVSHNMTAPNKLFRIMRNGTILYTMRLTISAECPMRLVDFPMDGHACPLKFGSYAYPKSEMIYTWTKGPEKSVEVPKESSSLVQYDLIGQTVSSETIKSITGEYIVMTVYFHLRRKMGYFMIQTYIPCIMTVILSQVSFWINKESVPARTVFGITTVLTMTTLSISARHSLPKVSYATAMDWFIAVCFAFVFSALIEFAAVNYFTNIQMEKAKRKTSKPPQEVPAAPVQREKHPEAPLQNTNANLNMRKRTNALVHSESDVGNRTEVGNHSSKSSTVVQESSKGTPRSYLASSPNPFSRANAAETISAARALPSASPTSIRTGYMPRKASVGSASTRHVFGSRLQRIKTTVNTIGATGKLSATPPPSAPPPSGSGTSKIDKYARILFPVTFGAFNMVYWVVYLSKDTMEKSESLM

As a reminder, the pKi is the negative decadic logarithm of the Ki, by convention in mol/L. As for `COC(=O)c1cc2c(cn1)[nH]c1ccccc12`, the pKi is 5.49 in assay [1] and 6.51 in assay [2].

In the case of `O=c1c2cnc3ccccc3c2[nH]n1-c1ccc(Cl)cc1`, the values for the negative-log Ki (pKi) in assay [1] and in assay [2] were 6.54 and 7.45, respectively.

On to `CNC(=O)c1cc2c(cn1)[nH]c1ccccc12` [CAS_4375], for which the negative logarithm of the Ki (pKi) in assay [1] was 5.60; in assay [2], 6.52.

For `CCOC(=O)c1ncn2c1CN(C)C(=O)c1cc(N=[N+]=[N-])ccc1-2` [RO-154513], the pKi in assay [1] is 7.93.

Consider `CCc1c(C(=O)OC)ncc2[nH]c3cc(OC)c(OC)cc3c12` [NSC_104999], for which the figures for the pKi in assay [1] and in assay [2] were 6.82 and 7.85, respectively.

As for `COc1ccc(-n2[nH]c3c(cnc4ccccc43)c2=O)cc1` [2-(4-Methoxy-phenyl)-2,5-dihydro-pyrazolo[4,3-c]quinolin-3-one (CGS 9895)], the pKi was 7.36 in assay [1] and 8.17 in assay [2].

Consider `CC(C)(C)OC(=O)c1ncn2c1C1CCCN1C(=O)c1c(Br)cccc1-2` (stereo not drawn) [8-Bromo-7-oxo-3b,4,5,6-tetrahydro-7H-2,6a,11b-triaza-benzo[g]cyclopenta[e]azulene-3-carboxylic acid tert-butyl ester], for which the results for the pKi in assay [1] and in assay [2] were 7.26 and 7.27, respectively.
